Test results taken from article PMC4655410, “Hepatitis B virus efficiently infects non-adherent hepatoma cells via human sodium taurocholate cotransporting polypeptide” (Scientific Reports, 2015).
Entries after “also recorded” stand apart in the source; their conditions may differ. Like-named read-outs stand apart in the source and are kept apart here.

What was measured:
in vitro = conditions: human
Procedure: (§1) Cell viability was evaluated using the MTS assay system (CellTiter 96 AQueous One Solution Cell Proliferation Assay, Promega, Madison, WI, USA).
(§2) real-time qRT-PCR in cells harvested at 6 dpi (black bars). Cell viability was measured
(§3) by the MTS assay (black line with a triangle). i. […]
(§4) non-adherent phase (black columns) in the presence of 0, 10 or 30 nM proscillaridin A. […]

HBV [1] = test: Inhibition of HBV infection of non-adherent HepG2/NTCPA3 cells (intracellular HBV RNA, real-time qRT-PCR); type: cell-based, Hepatitis B virus (genotype D); conditions: for IC50: Hepatitis B virus, read-out: IC50 (anti-HBV activity); for Selectivity Index: SI from CC50 and IC50
Procedure: In the case of the non-adherent cell conditions of infection, HepG2 cells, the derived cells, or differentiated HepaRG cells were harvested using 0.25% trypsin/ethylenediaminetetraacetic acid (EDTA) solution (Sigma). After washing once with 10% FBS-DMEM, the resulting cells were suspended in the primary hepatocyte maintenance medium (PMM) consisting of William’s E medium (Sigma) supplemented with 2 mM L-glutamine, 5 μg/ml transferrin (Sigma), 10 ng/ml recombinant human epidermal growth factor (PeproTech, Rocky Hill, NJ, USA), 3 μg/ml insulin, 18 μg/ml hydrocortisone, 40 ng/ml dexamethasone (Sigma), 5 ng/ml sodium selenite (Sigma), 2% DMSO (Wako), 100 U/ml penicillin, and 100 μg/ml streptomycin (Gibco). The suspended cells (1.25 × 10^5 cells) were added to each well following the addition of virus, and were then immediately mixed well in 0.5 ml of PMM supplemented with 4% polyethylene glycol (PEG) 8000 (Sigma) and 2% FBS in each well of a 24-well collagen-coated plate. The resulting mixtures were incubated at 37 °C (0 days post-infection, dpi).
The cells infected in non-adherent or adherent phase were washed three times with phosphate-buffered saline (PBS) at 1 dpi and incubated in fresh PMM supplemented with 10% FBS. The cells were re-seeded at 2 dpi at a density of 2 × 10^4 cells/well (48-well collagen-coated plate) or 4 × 10^4 cells/well (24-well collagen-coated plate) and maintained in PMM supplemented with 10% FBS. The cells and the culture supernatants were collected at each indicated dpi in order to evaluate the amounts of viral proteins, RNA, and DNA.
Simvastatin, proscillaridin A, bufalin, convallatoxin, digitoxin, digoxin, and azelastine were purchased from Sigma. Fluvastatin was from Cayman Chemical Co. (Ann Arbor, MI, USA). The lipopeptide myr-47WT, which is an N-terminally myristoylated peptide consisting of aa 2 to 47 of the preS1 region of HBV, and myr-47N9K, in which Asn at the 9th position is substituted with Lys, were synthesized by Scrum Co. (Tokyo, Japan)[11]. […] These cells (1 × 10^6 cells/ml) were preincubated at room temperature for 1 h in PMM supplemented with a peptide at 400 nM or a compound at the indicated concentration, and were then infected with HBV at 1,000 GEq/cell in the presence of the preS1 peptide or compounds at the same concentration as in the preincubation. The resulting cells were washed three times with PBS at 1 dpi and incubated in fresh PMM supplemented with 10% FBS. Cells were then re-seeded at 2 dpi at a density of 2 × 10^4 cells/well (48-well plate) or 4 × 10^4 cells/well (24-well plate) and maintained in PMM supplemented with 10% FBS. The resulting cells and culture supernatants were collected at each indicated dpi in order to evaluate viral RNA and DNA.
(§5) Total RNA was extracted using the RNeasy Mini Kit (Qiagen, Valencia, CA, USA), followed by DNase digestion using the TURBO DNA-free kit (Ambion, Austin, TX, USA). The resulting RNA preparation was reverse-transcribed using ReverTra Ace qPCR RT Master Mix (TOYOBO, Tokyo, Japan) according to the manufacturer’s protocol. Viral DNA was extracted from culture supernatants using the QIAamp DNA Mini Kit (Qiagen) according to the manufacturer’s protocol. The amounts of viral DNA and RNA were measured by real-time quantitative PCR (qPCR) and real-time quantitative reverse transcriptase (qRT)-PCR, respectively. The amounts of intracellular HBV RNA and supernatant HBV DNA were estimated according to the method described by Yan et al.[11]. The amounts of NTCP and GAPDH mRNAs were estimated by real-time qRT-PCR using the primer pairs 5′-[…]-3′ and 5′-[…]-3′, and 5′-[…]-3′ and 5′-[…]-3′, respectively. Real-time PCR was carried out using the Fast SYBER Green Master Mix (Applied BioSystems) and StepOne Plus Real-Time PCR System (Applied BioSystems). The amounts of HBs and HBe antigens in culture supernatants were estimated by a chemiluminescent immunoassay (SRL Inc., Tokyo, Japan).
Supplementary Figure 4. […]

HepG2/NTCPA3 cells = test: in vitro
Procedure: as §1, §2, §3, §4

HBV [2] = test: Effect on HBV replication, compound added after infection (intracellular HBV RNA); type: cell-based, Hepatitis B virus (genotype D); conditions: compound added at 3 dpi, harvested at 6 dpi, HepG2/NTCPA3, HBV 1,000 GEq/cell
Procedure: The resulting cells were harvested at 6 dpi. The amount of intracellular HBV RNA was quantified by real-time qRT-PCR (black bars) and is presented as the percentage of the control value (DMSO). Cell viability was evaluated (gray bars). Data were calculated from 3 to 5 independent experiments and are expressed as means ± SD.
as §5, with “The amounts of HBs and HBe antigens in culture supernatants were estimated by a chemiluminescent immunoassay (SRL Inc., Tokyo, Japan).” left out

HBV [3] = test: Supernatant HBe antigen after HBV infection in the presence of compound (chemiluminescence immunoassay); type: cell-based, Hepatitis B virus (genotype D); conditions: non-adherent HepG2/NTCPA3 cells, HBV 1,000 GEq/cell, supernatant at 12 dpi
Procedure: as §5
Cell viability was measured
Culture supernatants were collected at
antigen was quantified by a chemiluminescence immunoassay. j. HepG2/NTCPA3 cells

NTCP [4] = conditions: read-out: IC50 for inhibition of NTCP-mediated taurocholic acid uptake; cited from earlier work
NTCP [5] = molecular target: T1, NTCP (Homo sapiens, UniProt Q14973); test: Competitive binding assay: compounds versus myr-47WT binding to HepG2/NTCPA3 cells (FACS); conditions: compounds at 10 μM (proscillaridin A 10 to 100 μM)
T1 construct: expressed in transfected cells; plasmid pEF pGKpuro, puromycin selection
T1 sequence (Q14973 1-349): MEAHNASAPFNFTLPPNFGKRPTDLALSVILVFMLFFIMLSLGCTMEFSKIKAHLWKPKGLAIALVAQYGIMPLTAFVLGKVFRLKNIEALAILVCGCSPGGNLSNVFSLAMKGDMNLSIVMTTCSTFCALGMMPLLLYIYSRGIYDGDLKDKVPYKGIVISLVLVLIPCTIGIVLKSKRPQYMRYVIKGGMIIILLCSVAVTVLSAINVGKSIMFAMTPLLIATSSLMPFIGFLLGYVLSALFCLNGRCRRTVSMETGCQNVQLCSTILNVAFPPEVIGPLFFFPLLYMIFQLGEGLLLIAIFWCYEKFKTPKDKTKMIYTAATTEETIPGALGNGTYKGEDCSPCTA
Procedure: After washing twice with 2% FBS/PBS, the resulting cells were analyzed by FACS analysis.
Supplementary Figure 5. Effects of compounds on the binding ability of preS1 lipopeptide to HepG2/NTCPA3 cells. a and b. HepG2/NTCPA3 cells were pretreated with DMSO for 30 min and then were treated with myr-47N9K (a) or myr-47WT (b) in the presence of DMSO for an additional 30 min. The resulting cells were subjected to FACS analysis. c to h. HepG2/NTCPA3 cells were pretreated with the indicated concentration of each compound for 30 min and then were treated with myr-47WT in the presence of each compound for an additional 30 min. […]
fluvastatin (d), proscillaridin A (e, f and g), and azelastine (h) on preS1 binding were analyzed using FACS analysis, as described in the Materials and Methods section.
(1 picture or pasted object on this page, not shown here)

[6] = non-adherent HepG2/NTCPA3 cells, HBV 1,000 GEq/cell, compound from 1 h pre-infection to 1 dpi, HBV RNA at 6 dpi
[7] = non-adherent HepG2/NTCPA3 cells, compound from 1 h pre-infection to 1 dpi

Row | Compound | CC50 (in vitro) | IC50 (HBV [1]; [6]) | IC50 (HBV [1]; HepG2, 1 h) | Selectivity Index (HBV [1]) | Inhibition of HBV infection (in words) (HBV [1]; [7]) | also measured
1 | CN1CCCC(n2nc(Cc3ccc(Cl)cc3)c3ccccc3c2=O)CC1 (stereo not drawn) [Azelastine] | > 30000 nM | > 30000 nM |  |  |  | Inhibitory effect on HBV infection (in words) (HBV [1]; at 0.01 to 1 μM, non-adherent HepG2/NTCPA3 cells): moderate and significant inhibitory effects
2 | C[C@]12CC[C@H](O)C[C@H]1CC[C@@H]1[C@@H]2CC[C@]2(C)[C@@H](c3ccc(=O)oc3)CC[C@]12O [Bufalin] | 479 ± 64.7 nM |  | 32.4 ± 11.3 nM | 15.8 ± 4.3 | inhibited HBV infection in a dose-dependent manner | Inhibition of HBV infection (in words) (HBV [1]; non-adherent HepG2/NTCPA3 cells, compound from 1 h pre-infection to 1 dpi, listed as bufalin): inhibited HBV infection
3 | C[C@@H]1O[C@@H](O[C@H]2CC[C@]3(C=O)[C@H]4CC[C@]5(C)[C@@H](C6=CC(=O)OC6)CC[C@]5(O)[C@@H]4CC[C@]3(O)C2)[C@H](O)[C@H](O)[C@H]1O [Convallatoxin] | 156 ± 53.8 nM |  | 10.7 ± 3.6 nM | 15.7 ± 4.7 | inhibited HBV infection in a dose-dependent manner | 
4 | C[C@H]1O[C@@H](O[C@H]2[C@@H](O)C[C@H](O[C@H]3[C@@H](O)C[C@H](O[C@H]4CC[C@@]5(C)[C@H](CC[C@@H]6[C@@H]5CC[C@]5(C)[C@@H](C7=CC(=O)OC7)CC[C@]65O)C4)O[C@@H]3C)O[C@@H]2C)C[C@H](O)[C@@H]1O [Digitoxin] | 1730 ± 384 nM | 93.3 ± 15.3 nM |  | 18.9 ± 3.4 | inhibited HBV infection in a dose-dependent manner | 
5 | C[C@H]1O[C@@H](O[C@H]2[C@@H](O)C[C@H](O[C@H]3[C@@H](O)C[C@H](O[C@H]4CC[C@@]5(C)[C@H](CC[C@@H]6[C@@H]5C[C@@H](O)[C@]5(C)[C@@H](C7=CC(=O)OC7)CC[C@]65O)C4)O[C@@H]3C)O[C@@H]2C)C[C@H](O)[C@@H]1O [Digoxin] | 1430 ± 277 nM | > 100 nM |  |  | did not inhibit HBV infection | 
6 | CC(C)n1c(/C=C/C(O)CC(O)CC(=O)O)c(-c2ccc(F)cc2)c2ccccc21 (stereo not drawn) [Fluvastatin] | > 100000 nM | > 30000 nM |  |  | did not inhibit; also recorded: not by treatment with fluvastatin | Cytotoxicity (in words) (HepG2/NTCPA3 cells): not cytotoxic
7 | C[C@@H]1O[C@@H](O[C@@H]2C=C3CC[C@@H]4[C@H](CC[C@]5(C)[C@@H](c6ccc(=O)oc6)CC[C@]45O)[C@@]3(C)CC2)[C@H](O)[C@H](O)[C@H]1O [Proscillaridin A] | 496 ± 140 nM | 7.2 ± 2.5 nM |  | 75.5 ± 26.7 | inhibited HBV infection | Amount of HBV RNA in cells treated after infection (HBV [2]): not decreased; also recorded: did not exhibit an inhibitory effect on the viral replication; Amount of supernatant HBe antigen (HBV [3]): reduced; IC50 (NTCP [4]): 22000 nM; Effect on binding of myr-47WT (200 nM) to the cell surface of HepG2/NTCPA3 (NTCP [5]): negligible effect; Anti-HBV effect in non-adherent cells compared with adherent cells (HBV [1]; 0, 10 or 30 nM, HBV 1,000 GEq/cell, HBV RNA): similar
8 | CCC(C)(C)C(=O)O[C@H]1C[C@@H](C)C=C2C=C[C@H](C)[C@H](CC[C@@H]3C[C@@H](O)CC(=O)O3)[C@H]21 [Simvastatin] | > 30000 nM |  | 5200 ± 600 nM |  |  | Amount of HBV RNA in cells treated after infection (HBV [2]): not decreased; also recorded: did not exhibit an inhibitory effect on the viral replication; Inhibition of HBV infection (in words) (HBV [1]): inhibited HBV infection
